Measured values from patent US12174198B2, “Methods of characterizing condensate-associated characteristics of compounds and uses thereof” (Dewpoint Therapeutics, Inc., priority 2019, dated 2024).
Where a name gives a salt, the structure may show the parent alone.

How the values were obtained:
Format in all cases: physicochemical
[1] = system: FUS-SNAP condensates versus PGL-3 condensates; assay: Condensate preference: ratio of FUS-SNAP I-in:I-out to PGL-3 I-in:I-out; settings: average FUS-SNAP I-in:I-out divided by average PGL-3 I-in:I-out
How it was run: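 For each condensate type, mean intensity inside the target condensates is divided by the intensity outside (I-in:I-out). The ratios from two experiment days are averaged. Preference is expressed as the FUS-SNAP ratio relative to the PGL-3 ratio.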

FUS-SNAP condensates [2] = target: T1, FUS-SNAP condensates (Homo sapiens, UniProt P35637); assay: Mass spectrometry-based depletion assay of compound partitioning; settings: for Measured fraction outside of the FUS-SNAP condensates, single compound test reactions versus mixture of four compounds: FIG. 9A, 9B, 0.1 μM and 1 μM, triplicate; for Measured fraction outside of the FUS-SNAP condensates, single compound test reactions versus mixture of four compounds / Partitioning into FUS-condensates at different compound concentrations (fraction of compound in supernatant): 0.01 μM; for Ratio of compound concentration in versus compound concentration out, MS-based assay: condensate volume fraction of 1/1000 used; for Partitioning into FUS-condensates at different compound concentrations (fraction of compound in supernatant): FIG. 8, 0.1 μM, 1 μM and 10 μM, N=3 technical repeats; for Identified partitioning into FUS-condensates: as identified before Example 5
T1 sequence (P35637 1-526): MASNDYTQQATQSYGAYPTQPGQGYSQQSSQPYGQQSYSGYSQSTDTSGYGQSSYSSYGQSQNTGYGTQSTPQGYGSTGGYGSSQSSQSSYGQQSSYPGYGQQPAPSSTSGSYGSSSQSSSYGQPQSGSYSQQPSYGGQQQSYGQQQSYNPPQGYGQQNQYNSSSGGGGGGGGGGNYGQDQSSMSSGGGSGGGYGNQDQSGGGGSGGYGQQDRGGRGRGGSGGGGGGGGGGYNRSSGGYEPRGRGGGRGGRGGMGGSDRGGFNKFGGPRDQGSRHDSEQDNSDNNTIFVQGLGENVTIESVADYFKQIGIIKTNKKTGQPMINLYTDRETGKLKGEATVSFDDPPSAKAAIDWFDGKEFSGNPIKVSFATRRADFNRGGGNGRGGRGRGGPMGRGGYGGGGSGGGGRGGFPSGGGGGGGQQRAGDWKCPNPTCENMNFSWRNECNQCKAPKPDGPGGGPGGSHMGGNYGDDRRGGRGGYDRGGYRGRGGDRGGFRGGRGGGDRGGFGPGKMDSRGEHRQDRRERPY
Description: Protein Buffer was prepared (50 mM Tris, pH 7.25, 500 mM KCl, 1 mM DTT, and 5% glycerol). The high salt concentration of Protein Buffer prevents phase separation of macromolecules, e.g., proteins, contained therein. 20 μl aliquots of 70 μM FUS-SNAP protein stock solution were prepared in Protein Buffer. The aliquots of FUS-SNAP protein stock solution were frozen and stored prior to use. Dilution Buffer was prepared (14.7 mM Tris, pH 7.25, and 1 mM DTT).
Aliquots of 70 μM FUS-SNAP protein stock solution were thawed at room temperature for about 10 minutes. The aliquots of protein stock solution appeared clear with no visible precipitates. The thawed protein stock solution were filtered using centrifugation filters (Millipore, UFC30VV00). In brief, the aliquots of protein stock solution were added to a centrifugation filed and centrifuged for 1 minutes at 20,000 rcf at room temperature. The flow-through was collected. The protein concentration of the flow-through was measured and a solution of 33.3 μM FUS-SNAP was prepared by diluting the filtered flow-through and Dilution Buffer.
40 μL test reactions were prepared inside a PCR-tube or a PCR-strip (8 wells; AXYGEN™ 8-Strip PCR Tubes, 0.2 mL) using the following: (i) 34 μL Dilution Buffer, with the test compound at a given concentration, and with DMSO to obtain a final DMSO concentration of 1%, and (ii) 6 μL of 33.3 μM FUS-SNAP filtered protein solution. The final concentration of the 40 reactions were 5 μM FUS-SNAP, 75 mM KCl, 20 mM Tris, 0.75% Glycerol, 1 mM DTT, 1% DMSO, and, for the reactions containing a test compound, the desired test compound concentration.
40 μL reference reactions were prepared as described for the test reactions, however, no test compound was added at this stage.
The test reactions and the reference reactions were incubated for 15 minutes at room temperature. It is expected that within the test reactions, condensed high density liquid droplets (mM concentration of protein) of FUS-SNAP protein (condensed phase) are present in an environment of a lower concentrated solution (μM concentration of protein) of FUS-SNAP dilute phase. Test compounds may or may not partition into the condensed phase causing a reduction of the concentration outside (test compound in the dilute phase) and an increase of the concentration inside (test compound in the droplets). The volume of high density liquid droplets is estimated to be at least 1000-fold smaller than the total volume of the reaction, e.g., 20 nL of a condensed phase in a 20 μL reaction.
Following the 15 minute incubation period, the test reactions and reference reactions were processed to separate condensates (the high density liquid droplets) from the supernatant (the dilute phase). Briefly, the test reactions and reference reactions were centrifuged at 10,000 rcf for 10 minutes in a cooled centrifuge at 20° C. When PCR-strips were sued, the rotor used was the Eppendorf F-45-48-5-PCR. 35 μL of the supernatant from each tube was removed and transferred to a new tube being careful not to disturb the pellets, which contained the condensates.
For the reference reactions, a known amount of the test compound was added to the tube containing the supernatant (which contains protein not associated with a condensate), such that the final compound concentration is the same as the initial concentration of the compound in the test reaction. Reference reactions can also be formed by measuring the amount of protein in the supernatant of a test reaction and replicating a supernatant solution based on the obtained information. The known amount of the compound added to the supernatant from the reference reaction was used to calibrate the mass spectrometry signal of the test reaction.
Additionally, the compound was extracted from the test reactions in order to directly measure the amount of compound in the formed condensates. […]

FUS-SNAP condensates [3] = target: T1, FUS-SNAP condensates; assay: Fluorescence-based assay of compound partitioning compared with the MS assay (Example 4); settings: condensate volume fraction of 1/1000 used
Description: The partition characteristics of the test compounds were also determined using the fluorescence-based assay method disclosed in Example 2.
Rhodamine 101 (Rho 101), Rhodamine 800 ([…]), Rhodamine B (Rho B), Rhodamine 123 (Rho 123), and fluorescein were assessed using both the fluorescence-based assay and the mass spectrometry-based assay, as discussed above. […] Using the measurements, a ratio of compound concentration associated with the condensate compared to compound concentration not associated with the condensate was calculated for each compound. A condensate volume fraction of 1/1000 in relation to the outside phase was used.

FUS-GFP condensates = target: T2, FUS-GFP condensates (Homo sapiens, UniProt P35637); assay: Co-localization of dye and FUS in FUS-GFP condensates (confocal imaging); settings: FIG. 6; FUS-GFP channel and Rhodamine 800 channel
T2 sequence (P35637 1-526): T1 sequence (P35637 1-526)
Description: FUS-GFP condensates were prepared as described for FUS-SNAP in Example 2 using Dye 18.
A spinning disk confocal microscope was used to acquire images of the samples. A 60×oil high-NA objective lens was used to capture the condensate droplets. The laser power was set to 20% and the exposure times were adjusted to the fluorescence emission intensity specific for each dye. Exposure times ranged from 1-1000 ms. Appropriate filter settings were used, matching the excitation and emission spectra of the dye and GFP. Control images were taken of condensates containing FUS-GFP with no dye.

| SMILES | Ratio of FUS-SNAP:PGL-3 [1] | Measured fraction outside of the FUS-SNAP condensates, single compound test reactions versus mixture of four compounds (FUS-SNAP condensates [2]) | Ratio of compound concentration in versus compound concentration out, MS-based assay (FUS-SNAP condensates [2]) | Ratio of compound concentration in versus compound concentration out, Fluorescence-based assay (FUS-SNAP condensates [3]) | Partitioning into FUS-condensates at different compound concentrations (fraction of compound in supernatant) (FUS-SNAP condensates [2]) | Identified partitioning into FUS-condensates (FUS-SNAP condensates [2]) | Co-localization of dye with GFP-labeled FUS in condensates (FUS-GFP condensates) |
| --- | --- | --- | --- | --- | --- | --- | --- |
| CCN(CC)c1ccc2c(-c3ccccc3C(=O)O)c3ccc(=[N+](CC)CC)cc-3oc2c1 [Dye 16, Rhodamine B] | 3.0 | in agreement | 666 | 666 |  |  |  |
| O=C([O-])c1ccccc1C1=c2cc3c4c(c2Oc2c1cc1c5c2CCCN5CCC1)CCC[N+]=4CCC3 [Dye 17, Rhodamine 101 inner salt] | 3.2 |  | >8,000 | 1,500 | partition into the FUS-condensates at lower compound concentrations | partitioning into FUS-condensates |  |
| N#CC1=c2cc3c4c(c2Oc2c1cc1c5c2CCCN5CCC1)CCC[N+]=4CCC3 [Dye 18, Rhodamine 800] | 3.2 |  | >2,000 | 1,000 |  |  | co-localized in the condensates |
| COC(=O)c1ccccc1-c1c2ccc(=N)cc-2oc2cc(N)ccc12.Cl [Dye 14, Rhodamine 123] | 1.2 |  | 1-100 | 1 |  |  |  |
| O=C1OC2(c3ccc(O)cc3Oc3cc(O)ccc32)c2ccccc21 [Dye 6, Fluorescein] | 1.5 | in agreement | 1-100 | 1 | does not partition into the FUS-condensates at any of the tested concentrations | not partitioning into FUS-condensates |  |
